# Experimental data from ChEMBL document CHEMBL4229345, “Inhibition of trypanosome alternative oxidase without its N-terminal mitochondrial targeting signal (ΔMTS-TAO) by cationic and non-cationic 4-hydroxybenzoate and 4-alkoxybenzaldehyde derivatives active against T. brucei and T. congolense” (Eur J Med Chem, 2018).
# Tested on: not listed separately
# Assay: Inhibition of recombinant N-terminal His6 tagged SUMO-fused Trypanosoma brucei brucei TC221 TAO MTS deletion mutant expressed in Escherichia coli FN102 preincubated for 2 mins followed by ubiquinol-1 addition measured over 2 mins by double beam-dual wavelength UV-spectrophotometry
# Conditions: not given
row,Structure (SMILES),IC50 [nM]
1,Cc1cc(O)ccc1C(=O)OCCCCCCCCCCCCCCOC=O,1.1
2,O=C(OCCCCCCCCCCCCCCOC(=O)c1ccc(O)cc1O)c1ccc(O)cc1O,15.7
3,O=C(OCCCCCCCCCCCCCCCCBr)c1ccc(O)cc1O,12.4
4,O=C(OCCCCCCCCCCCCCCCCOC(=O)c1ccc(O)cc1O)c1ccc(O)cc1O,12.3
5,O=C(OCCCCCCCCCCCCCC[P+](c1ccccc1)(c1ccccc1)c1ccccc1)c1ccc(O)cc1F.[Br-],30
6,O=C(OCCCCCCCCCCCCOC(=O)c1ccc(O)cc1O)c1ccc(O)cc1O,7

# Tested on: not listed separately
# Assay: Competitive inhibition of recombinant N-terminal His6 tagged SUMO-fused Trypanosoma brucei brucei TC221 TAO MTS deletion mutant expressed in Escherichia coli FN102 preincubated for 2 mins followed by ubiquinol-1 addition measured over 2 mins by Lineweaver-Burk plot analysis
# Conditions: not given
row,Structure (SMILES),Ki [nM]
1,Cc1cc(O)ccc1C(=O)OCCCCCCCCCCCCCCOC=O,4.1

# Tested on: Trypanosoma brucei brucei
# Assay: Anti-parasitic activity against bloodstream trypomastigote stage of wild-type Trypanosoma brucei brucei Lister 427 after 48 hrs by resazurin-based assay
# Format: functional, organism-based
# Conditions: Lister 427, 48 h
row,Structure (SMILES),EC50 [µM]
1,Cc1cc(O)ccc1C(=O)OCCCCCCCCCCCCCCOC=O,4.1
2,O=C(OCCCCCCCCCCCCCCOC(=O)c1ccc(O)cc1O)c1ccc(O)cc1O,42.1
3,O=C(OCCCCCCCCCCCCCCCCOC(=O)c1ccc(O)cc1O)c1ccc(O)cc1O,26.7
4,O=C(OCCCCCCCCCCCCCC[P+](c1ccccc1)(c1ccccc1)c1ccccc1)c1ccc(O)cc1F.[Br-],0.00058
5,O=C(OCCCCCCCCCCCCOC(=O)c1ccc(O)cc1O)c1ccc(O)cc1O,32.9

# Tested on: Trypanosoma brucei brucei
# Assay: Anti-parasitic activity against bloodstream trypomastigote stage of wild-type Trypanosoma brucei brucei Lister 427 after 48 hrs in presence of 5 mM glycerol by resazurin-based assay
# Format: functional, organism-based
# Conditions: Lister 427, 48 h
row,Structure (SMILES),EC50 [µM]
1,Cc1cc(O)ccc1C(=O)OCCCCCCCCCCCCCCOC=O,7.8
2,O=C(OCCCCCCCCCCCCCCOC(=O)c1ccc(O)cc1O)c1ccc(O)cc1O,15.9
3,O=C(OCCCCCCCCCCCCCCCCBr)c1ccc(O)cc1O,11.1
4,O=C(OCCCCCCCCCCCCCCCCOC(=O)c1ccc(O)cc1O)c1ccc(O)cc1O,12.4
5,O=C(OCCCCCCCCCCCCCC[P+](c1ccccc1)(c1ccccc1)c1ccccc1)c1ccc(O)cc1F.[Br-],0.00039
6,O=C(OCCCCCCCCCCCCOC(=O)c1ccc(O)cc1O)c1ccc(O)cc1O,13.6

# Tested on: Trypanosoma congolense
# Assay: Anti-parasitic activity against bloodstream form of Trypanosoma congolense IL3000 after 48 hrs by resazurin-based assay
# Format: functional, organism-based
# Conditions: IL3000, 48 h
row,Structure (SMILES),EC50 [µM]
1,O=C(OCCCCCCCCCCCCCCOC(=O)c1ccc(O)cc1O)c1ccc(O)cc1O,> 100
2,O=C(OCCCCCCCCCCCCCCCCOC(=O)c1ccc(O)cc1O)c1ccc(O)cc1O,> 100
3,O=C(OCCCCCCCCCCCCCC[P+](c1ccccc1)(c1ccccc1)c1ccccc1)c1ccc(O)cc1F.[Br-],0.018
4,O=C(OCCCCCCCCCCCCOC(=O)c1ccc(O)cc1O)c1ccc(O)cc1O,> 100

# Tested on: Trypanosoma brucei brucei
# Assay: Resistance factor, ratio of EC50 for bloodstream trypomastigote stage of wild-type Trypanosoma brucei brucei Lister 427 in presence of 5 mM glycerol to EC50 for bloodstream trypomastigote stage of wild-type Trypanosoma brucei brucei Lister 427
# Format: functional
# Conditions: not given
row,Structure (SMILES),Ratio EC50
1,Cc1cc(O)ccc1C(=O)OCCCCCCCCCCCCCCOC=O,1.92
2,O=C(OCCCCCCCCCCCCCCOC(=O)c1ccc(O)cc1O)c1ccc(O)cc1O,0.38
3,O=C(OCCCCCCCCCCCCCCCCBr)c1ccc(O)cc1O,0.24
4,O=C(OCCCCCCCCCCCCCCCCOC(=O)c1ccc(O)cc1O)c1ccc(O)cc1O,0.46
5,O=C(OCCCCCCCCCCCCCC[P+](c1ccccc1)(c1ccccc1)c1ccccc1)c1ccc(O)cc1F.[Br-],0.66
6,O=C(OCCCCCCCCCCCCOC(=O)c1ccc(O)cc1O)c1ccc(O)cc1O,0.41

# Tested on: not listed separately
# Assay: Cytotoxicity against HFF cells assessed as reduction in cell viability after 30 hrs by resazurin-based assay
# Conditions: human
row,Structure (SMILES),CC50 at 30 h [µM]
1,Cc1cc(O)ccc1C(=O)OCCCCCCCCCCCCCCOC=O,> 200
2,O=C(OCCCCCCCCCCCCCC[P+](c1ccccc1)(c1ccccc1)c1ccccc1)c1ccc(O)cc1F.[Br-],> 200

# Tested on: not listed separately
# Assay: Cytotoxicity against HEK cells assessed as reduction in cell viability after 30 hrs by resazurin-based assay
# Conditions: human
row,Structure (SMILES),CC50 at 30 h [µM]
1,O=C(OCCCCCCCCCCCCCCOC(=O)c1ccc(O)cc1O)c1ccc(O)cc1O,> 400
2,O=C(OCCCCCCCCCCCCCCCCBr)c1ccc(O)cc1O,> 400
3,O=C(OCCCCCCCCCCCCCCCCOC(=O)c1ccc(O)cc1O)c1ccc(O)cc1O,> 400
4,O=C(OCCCCCCCCCCCCOC(=O)c1ccc(O)cc1O)c1ccc(O)cc1O,> 400

# Tested on: Trypanosoma brucei brucei
# Assay: Anti-parasitic activity against bloodstream trypomastigote stage of Trypanosoma brucei brucei with AQP2/3-dd knock out after 48 hrs by resazurin-based assay
# Format: functional, organism-based
# Conditions: not given
row,Structure (SMILES),EC50 [µM]
1,Cc1cc(O)ccc1C(=O)OCCCCCCCCCCCCCCOC=O,1.4
2,O=C(OCCCCCCCCCCCCCCOC(=O)c1ccc(O)cc1O)c1ccc(O)cc1O,28.2
3,O=C(OCCCCCCCCCCCCCCCCBr)c1ccc(O)cc1O,14.5
4,O=C(OCCCCCCCCCCCCCCCCOC(=O)c1ccc(O)cc1O)c1ccc(O)cc1O,14.3
5,O=C(OCCCCCCCCCCCCCC[P+](c1ccccc1)(c1ccccc1)c1ccccc1)c1ccc(O)cc1F.[Br-],0.00025
6,O=C(OCCCCCCCCCCCCOC(=O)c1ccc(O)cc1O)c1ccc(O)cc1O,26.7

# Tested on: Trypanosoma brucei brucei
# Assay: Anti-parasitic activity against bloodstream trypomastigote stage of Trypanosoma brucei brucei with AQP triple knock out after 48 hrs by resazurin-based assay
# Format: functional, organism-based
# Conditions: not given
row,Structure (SMILES),EC50 [µM]
1,Cc1cc(O)ccc1C(=O)OCCCCCCCCCCCCCCOC=O,1.8
2,O=C(OCCCCCCCCCCCCCCOC(=O)c1ccc(O)cc1O)c1ccc(O)cc1O,14.8
3,O=C(OCCCCCCCCCCCCCCCCBr)c1ccc(O)cc1O,5.1
4,O=C(OCCCCCCCCCCCCCCCCOC(=O)c1ccc(O)cc1O)c1ccc(O)cc1O,9.3
5,O=C(OCCCCCCCCCCCCCC[P+](c1ccccc1)(c1ccccc1)c1ccccc1)c1ccc(O)cc1F.[Br-],0.00037
6,O=C(OCCCCCCCCCCCCOC(=O)c1ccc(O)cc1O)c1ccc(O)cc1O,8.9

# Tested on: Trypanosoma brucei
# Assay: Anti-parasitic activity against bloodstream trypomastigote stage of pentamidine/diminazene/melaminophenyl arsenical resistant Trypanosoma brucei B48 after 48 hrs by resazurin-based assay
# Format: functional, organism-based
# Conditions: B48, 48 h
row,Structure (SMILES),EC50 [µM]
1,Cc1cc(O)ccc1C(=O)OCCCCCCCCCCCCCCOC=O,4.44
2,O=C(OCCCCCCCCCCCCCCOC(=O)c1ccc(O)cc1O)c1ccc(O)cc1O,36.6
3,O=C(OCCCCCCCCCCCCCCCCOC(=O)c1ccc(O)cc1O)c1ccc(O)cc1O,31.9
4,O=C(OCCCCCCCCCCCCCC[P+](c1ccccc1)(c1ccccc1)c1ccccc1)c1ccc(O)cc1F.[Br-],0.00075
5,O=C(OCCCCCCCCCCCCOC(=O)c1ccc(O)cc1O)c1ccc(O)cc1O,33.6

# Tested on: Trypanosoma brucei brucei
# Assay: Resistance factor, ratio of EC50 for bloodstream trypomastigote stage of Trypanosoma brucei brucei with AQP2/3-dd knock out to EC50 for bloodstream trypomastigote stage of wild-type Trypanosoma brucei brucei Lister 427
# Format: functional
# Conditions: not given
row,Structure (SMILES),Ratio EC50
1,Cc1cc(O)ccc1C(=O)OCCCCCCCCCCCCCCOC=O,0.34
2,O=C(OCCCCCCCCCCCCCCOC(=O)c1ccc(O)cc1O)c1ccc(O)cc1O,0.67
3,O=C(OCCCCCCCCCCCCCCCCBr)c1ccc(O)cc1O,0.32
4,O=C(OCCCCCCCCCCCCCCCCOC(=O)c1ccc(O)cc1O)c1ccc(O)cc1O,0.54
5,O=C(OCCCCCCCCCCCCCC[P+](c1ccccc1)(c1ccccc1)c1ccccc1)c1ccc(O)cc1F.[Br-],0.43
6,O=C(OCCCCCCCCCCCCOC(=O)c1ccc(O)cc1O)c1ccc(O)cc1O,0.81

# Tested on: Trypanosoma brucei brucei
# Assay: Resistance factor, ratio of EC50 for bloodstream trypomastigote stage of Trypanosoma brucei brucei AQP triple knock out to EC50 for bloodstream trypomastigote stage of wild-type Trypanosoma brucei brucei Lister 427
# Format: functional
# Conditions: not given
row,Structure (SMILES),Ratio EC50
1,Cc1cc(O)ccc1C(=O)OCCCCCCCCCCCCCCOC=O,0.45
2,O=C(OCCCCCCCCCCCCCCOC(=O)c1ccc(O)cc1O)c1ccc(O)cc1O,0.35
3,O=C(OCCCCCCCCCCCCCCCCBr)c1ccc(O)cc1O,0.11
4,O=C(OCCCCCCCCCCCCCCCCOC(=O)c1ccc(O)cc1O)c1ccc(O)cc1O,0.35
5,O=C(OCCCCCCCCCCCCCC[P+](c1ccccc1)(c1ccccc1)c1ccccc1)c1ccc(O)cc1F.[Br-],0.64
6,O=C(OCCCCCCCCCCCCOC(=O)c1ccc(O)cc1O)c1ccc(O)cc1O,0.27

# Tested on: not listed separately
# Assay: Resistance factor, ratio of EC50 for bloodstream trypomastigote stage of pentamidine/diminazene/melaminophenyl arsenical resistant Trypanosoma brucei B48 to EC50 for bloodstream trypomastigote stage of wild-type Trypanosoma brucei brucei Lister 427
# Format: functional
# Conditions: not given
row,Structure (SMILES),Ratio EC50
1,Cc1cc(O)ccc1C(=O)OCCCCCCCCCCCCCCOC=O,1.1
2,O=C(OCCCCCCCCCCCCCCOC(=O)c1ccc(O)cc1O)c1ccc(O)cc1O,0.87
3,O=C(OCCCCCCCCCCCCCCCCBr)c1ccc(O)cc1O,1.07
4,O=C(OCCCCCCCCCCCCCCCCOC(=O)c1ccc(O)cc1O)c1ccc(O)cc1O,1.2
5,O=C(OCCCCCCCCCCCCCC[P+](c1ccccc1)(c1ccccc1)c1ccccc1)c1ccc(O)cc1F.[Br-],1.3
6,O=C(OCCCCCCCCCCCCOC(=O)c1ccc(O)cc1O)c1ccc(O)cc1O,1

# Tested on: not listed separately
# Assay: Selectivity index, ratio of CC50 for HFF cells to EC50 for bloodstream trypomastigote stage of wild-type Trypanosoma brucei brucei Lister 427
# Format: toxicity
# Conditions: human, read-out: Ratio CC50/EC50
row,Structure (SMILES),selectivity ratio
1,Cc1cc(O)ccc1C(=O)OCCCCCCCCCCCCCCOC=O,> 48
2,O=C(OCCCCCCCCCCCCCC[P+](c1ccccc1)(c1ccccc1)c1ccccc1)c1ccc(O)cc1F.[Br-],> 344000

# Tested on: not listed separately
# Assay: Selectivity index, ratio of CC50 for HEK cells to EC50 for bloodstream trypomastigote stage of wild-type Trypanosoma brucei brucei Lister 427
# Format: toxicity
# Conditions: human, read-out: Ratio CC50/EC50
row,Structure (SMILES),selectivity ratio
1,O=C(OCCCCCCCCCCCCCCOC(=O)c1ccc(O)cc1O)c1ccc(O)cc1O,> 9
2,O=C(OCCCCCCCCCCCCCCCCBr)c1ccc(O)cc1O,> 8
3,O=C(OCCCCCCCCCCCCCCCCOC(=O)c1ccc(O)cc1O)c1ccc(O)cc1O,> 15
4,O=C(OCCCCCCCCCCCCOC(=O)c1ccc(O)cc1O)c1ccc(O)cc1O,> 12

# Tested on: not listed separately
# Assay: Selectivity index, ratio of CC50 for HFF cells to EC50 for bloodstream form of Trypanosoma congolense IL3000
# Format: toxicity
# Conditions: human, read-out: Ratio CC50/EC50
row,Structure (SMILES),selectivity ratio
1,O=C(OCCCCCCCCCCCCCC[P+](c1ccccc1)(c1ccccc1)c1ccccc1)c1ccc(O)cc1F.[Br-],> 11000

# Tested on: Trypanosoma brucei brucei
# Assay: Potency index, ratio of diminazene EC50 to test compound EC50 for anti-parasitic activity against bloodstream trypomastigote stage of wild-type Trypanosoma brucei brucei Lister 427
# Format: functional
# Conditions: not given
row,Structure (SMILES),Ratio EC50
1,O=C(OCCCCCCCCCCCCCC[P+](c1ccccc1)(c1ccccc1)c1ccccc1)c1ccc(O)cc1F.[Br-],5 - 40

# Tested on: Trypanosoma congolense
# Assay: Potency index, ratio of diminazene EC50 to test compound EC50 for anti-parasitic activity against bloodstream form of Trypanosoma congolense IL3000
# Format: functional
# Conditions: not given
row,Structure (SMILES),Ratio EC50
1,O=C(OCCCCCCCCCCCCCC[P+](c1ccccc1)(c1ccccc1)c1ccccc1)c1ccc(O)cc1F.[Br-],5 - 40

# Tested on: not listed separately
# Assay: Half life in mouse serum by LC/MS analysis
# Format: ADME, cell-free
# Conditions: not given
row,Structure (SMILES),half-life [min]
1,O=C(OCCCCCCCCCCCCCC[P+](c1ccccc1)(c1ccccc1)c1ccccc1)c1ccc(O)cc1F.[Br-],< 15
